Laboratory results as given in ChEMBL document CHEMBL1201862, “PubChem BioAssay data set” (2004).
Active and inactive are the calls of the source.

Assays:
[1] = biological target: T1, Acyl-homoserine lactone acylase PvdQ (Pseudomonas aeruginosa (strain LESB58), UniProt Q9I194); assay: PvdQ acylase enzyme activity blockers – biochemical, fluorescence, plate reader and imaging, cherry-picks, dose response (AID 493231)
T1 sequence (Q9I194 whole entry): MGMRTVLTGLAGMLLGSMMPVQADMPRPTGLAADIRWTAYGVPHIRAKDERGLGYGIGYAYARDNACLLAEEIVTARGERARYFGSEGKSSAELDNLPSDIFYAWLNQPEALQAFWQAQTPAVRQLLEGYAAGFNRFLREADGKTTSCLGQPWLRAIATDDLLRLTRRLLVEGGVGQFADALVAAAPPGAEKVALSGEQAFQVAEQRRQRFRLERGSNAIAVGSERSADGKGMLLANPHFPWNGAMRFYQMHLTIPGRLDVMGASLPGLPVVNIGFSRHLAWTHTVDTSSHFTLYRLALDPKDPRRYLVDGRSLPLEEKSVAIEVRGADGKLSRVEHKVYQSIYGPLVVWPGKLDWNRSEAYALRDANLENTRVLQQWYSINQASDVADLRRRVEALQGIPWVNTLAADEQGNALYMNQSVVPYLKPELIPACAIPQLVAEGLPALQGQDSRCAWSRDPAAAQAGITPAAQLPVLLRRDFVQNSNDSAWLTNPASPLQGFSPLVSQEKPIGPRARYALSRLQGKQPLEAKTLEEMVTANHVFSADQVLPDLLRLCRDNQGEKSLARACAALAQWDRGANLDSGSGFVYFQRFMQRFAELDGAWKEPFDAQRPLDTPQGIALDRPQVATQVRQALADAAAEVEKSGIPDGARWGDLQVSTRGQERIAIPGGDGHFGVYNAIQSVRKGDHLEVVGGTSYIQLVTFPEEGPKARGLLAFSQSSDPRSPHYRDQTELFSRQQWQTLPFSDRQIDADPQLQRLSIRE

[2] = biological target: T2, Heat shock factor protein 1 (Mus musculus, UniProt P38532); assay: enhancement of HSF1-driven luciferase signal – cell-based, NIH3T3, luminescence, dose retest, confirmation (AID 435004); type: functional;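 further: stress induced by proteasome inhibitor MG132 added 30 min after compound; luciferase reporter driven by HSF1 response element in NIH3T3 cells; actives raise luminescence as potentiators of the MG132 stress response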
T2 sequence (P38532 whole entry): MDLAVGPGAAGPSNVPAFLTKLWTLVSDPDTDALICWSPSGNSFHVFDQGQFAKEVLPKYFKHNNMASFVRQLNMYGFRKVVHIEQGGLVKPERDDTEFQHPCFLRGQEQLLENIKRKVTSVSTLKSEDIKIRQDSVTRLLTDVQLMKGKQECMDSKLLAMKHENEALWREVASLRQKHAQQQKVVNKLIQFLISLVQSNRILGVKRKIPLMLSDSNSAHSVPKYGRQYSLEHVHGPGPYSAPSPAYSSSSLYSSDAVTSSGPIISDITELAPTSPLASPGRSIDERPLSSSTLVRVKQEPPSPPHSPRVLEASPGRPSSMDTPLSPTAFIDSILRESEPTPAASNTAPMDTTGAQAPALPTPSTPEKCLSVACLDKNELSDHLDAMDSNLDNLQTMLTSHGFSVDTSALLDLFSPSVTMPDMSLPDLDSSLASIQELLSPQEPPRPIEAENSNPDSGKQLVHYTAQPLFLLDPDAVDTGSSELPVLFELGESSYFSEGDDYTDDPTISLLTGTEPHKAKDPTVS

[3] = biological target: T3, Sentrin-specific protease 1 (Homo sapiens, UniProt Q9P0U3); assay: SENP1 catalytic domain blockers, concentration series – biochemical, kinetic FRET, dose response (AID 651697); type: functional; settings: read-out: IC50_Mean
T3 sequence (Q9P0U3 whole entry): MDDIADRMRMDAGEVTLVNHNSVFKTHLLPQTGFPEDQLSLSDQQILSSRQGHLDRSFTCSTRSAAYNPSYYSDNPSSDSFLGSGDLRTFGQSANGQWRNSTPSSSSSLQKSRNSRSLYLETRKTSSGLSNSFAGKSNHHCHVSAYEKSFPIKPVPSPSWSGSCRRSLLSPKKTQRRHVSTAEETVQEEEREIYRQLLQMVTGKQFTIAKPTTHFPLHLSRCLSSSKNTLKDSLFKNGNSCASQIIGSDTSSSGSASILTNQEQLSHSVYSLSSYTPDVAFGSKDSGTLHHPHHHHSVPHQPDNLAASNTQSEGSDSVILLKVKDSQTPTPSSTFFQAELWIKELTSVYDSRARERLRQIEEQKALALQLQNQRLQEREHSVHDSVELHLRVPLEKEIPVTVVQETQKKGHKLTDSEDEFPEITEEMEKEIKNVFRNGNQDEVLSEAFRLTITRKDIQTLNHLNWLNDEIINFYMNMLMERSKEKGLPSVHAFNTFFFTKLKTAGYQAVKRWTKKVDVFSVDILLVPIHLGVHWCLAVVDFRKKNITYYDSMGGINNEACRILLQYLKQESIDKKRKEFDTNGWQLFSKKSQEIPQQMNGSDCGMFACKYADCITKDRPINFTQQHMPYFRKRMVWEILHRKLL

[4] = biological target: T3, Sentrin-specific protease 1; assay: Dose response confirmation of small molecule inhibitors of the catalytic domain of the SUMO protease, SENP1 in a FRET assay.; type: functional; settings: read-out: IC50_Mean
[5] = biological target: T4, RNA-binding protein pos-1 (Caenorhabditis elegans, UniProt G5EF15); assay: disruptors of C. elegans POS-1 RNA interaction – biochemical, fluorescence polarization, dose response (AID 1964);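 further: purified POS-1 fused to maltose binding protein made in E. coli; potency of compounds blocking POS-1 binding to fluorescent RNA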
T4 sequence (G5EF15 whole entry): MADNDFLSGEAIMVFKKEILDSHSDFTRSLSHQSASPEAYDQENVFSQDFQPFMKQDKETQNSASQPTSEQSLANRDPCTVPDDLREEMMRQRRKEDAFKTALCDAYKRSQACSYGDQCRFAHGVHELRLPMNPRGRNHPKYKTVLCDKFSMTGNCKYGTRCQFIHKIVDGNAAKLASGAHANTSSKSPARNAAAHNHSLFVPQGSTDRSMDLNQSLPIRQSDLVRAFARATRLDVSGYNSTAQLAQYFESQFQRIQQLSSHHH

[6] = biological target: T5, Zinc finger protein mex-5 (Caenorhabditis elegans, UniProt Q9XUB2); assay: potency of MEX-5 RNA-binding blockers – biochemical, C. elegans, fluorescence polarization, dose response (AID 1960)
T5 sequence (Q9XUB2 whole entry): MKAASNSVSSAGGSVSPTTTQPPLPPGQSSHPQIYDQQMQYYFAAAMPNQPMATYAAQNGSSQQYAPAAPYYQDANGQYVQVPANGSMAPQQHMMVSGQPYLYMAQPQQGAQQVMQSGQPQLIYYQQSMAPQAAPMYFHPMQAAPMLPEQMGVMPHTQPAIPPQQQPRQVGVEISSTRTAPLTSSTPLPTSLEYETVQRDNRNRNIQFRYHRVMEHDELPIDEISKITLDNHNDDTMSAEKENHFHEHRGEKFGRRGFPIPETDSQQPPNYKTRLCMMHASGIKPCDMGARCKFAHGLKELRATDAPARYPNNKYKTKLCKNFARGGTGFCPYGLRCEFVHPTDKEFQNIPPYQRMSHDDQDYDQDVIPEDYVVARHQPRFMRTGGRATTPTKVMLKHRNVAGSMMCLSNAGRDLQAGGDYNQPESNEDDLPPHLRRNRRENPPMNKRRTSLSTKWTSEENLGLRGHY

[7] = biological target: T6, Rac GTPase-activating protein 1 (Homo sapiens, UniProt Q9H0H5); assay: blockers of MgcRacGAP-driven Rac1 GTP hydrolysis – biochemical, ADP Hunter fluorescence, primary and confirmatory, confirmation (AID 624330); type: functional
T6 sequence (Q9H0H5 whole entry): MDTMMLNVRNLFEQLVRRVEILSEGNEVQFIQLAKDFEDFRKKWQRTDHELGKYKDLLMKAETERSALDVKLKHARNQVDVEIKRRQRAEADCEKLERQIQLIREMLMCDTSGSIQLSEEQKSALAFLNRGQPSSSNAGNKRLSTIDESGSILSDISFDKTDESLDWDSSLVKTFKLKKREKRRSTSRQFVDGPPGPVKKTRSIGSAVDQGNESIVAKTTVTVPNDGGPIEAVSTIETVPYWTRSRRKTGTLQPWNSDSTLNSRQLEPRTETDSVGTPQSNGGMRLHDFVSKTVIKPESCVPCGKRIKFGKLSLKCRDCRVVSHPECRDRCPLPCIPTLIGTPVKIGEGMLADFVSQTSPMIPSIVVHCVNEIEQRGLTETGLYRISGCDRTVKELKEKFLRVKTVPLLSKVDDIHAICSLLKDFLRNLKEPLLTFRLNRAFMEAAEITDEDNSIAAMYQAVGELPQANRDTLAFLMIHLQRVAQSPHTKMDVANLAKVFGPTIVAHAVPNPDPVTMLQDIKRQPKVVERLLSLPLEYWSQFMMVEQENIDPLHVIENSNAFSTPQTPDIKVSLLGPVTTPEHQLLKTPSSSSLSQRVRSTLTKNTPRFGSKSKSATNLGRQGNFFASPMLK

[8] = biological target: Peroxisome proliferator-activated receptor gamma/Nuclear receptor coactivator 1 (Homo sapiens, UniProt P37231); assay: (§1) TR-FRET dose response biochemical High Throughput Screening assay for agonists of the steroid receptor coactivator 1 (SRC-1) recruitment by the peroxisome proliferator-activated receptor gamma (PPAR gamma): non-selective agonists. [Related pubchem assays (depositor defined):AID1300, AID1808, AID504735, AID631]; type: protein assay
Sequence of Peroxisome proliferator-activated receptor gamma/Nuclear receptor coactivator 1 (P37231 whole entry): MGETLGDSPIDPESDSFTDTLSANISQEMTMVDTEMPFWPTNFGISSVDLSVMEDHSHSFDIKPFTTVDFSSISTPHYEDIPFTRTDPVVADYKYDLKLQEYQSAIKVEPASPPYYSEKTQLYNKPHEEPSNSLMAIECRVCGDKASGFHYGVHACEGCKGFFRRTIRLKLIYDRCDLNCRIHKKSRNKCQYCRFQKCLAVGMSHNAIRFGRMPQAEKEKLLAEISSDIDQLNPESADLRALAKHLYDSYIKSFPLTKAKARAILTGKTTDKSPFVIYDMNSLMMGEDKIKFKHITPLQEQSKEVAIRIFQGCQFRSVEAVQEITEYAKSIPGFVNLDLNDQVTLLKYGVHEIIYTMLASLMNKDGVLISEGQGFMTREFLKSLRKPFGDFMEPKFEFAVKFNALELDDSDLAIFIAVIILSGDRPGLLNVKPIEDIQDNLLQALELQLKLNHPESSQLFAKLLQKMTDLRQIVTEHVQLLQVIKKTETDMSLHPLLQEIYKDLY
Sequence of Peroxisome proliferator-activated receptor gamma/Nuclear receptor coactivator 1 (Q15788 whole entry, further chain): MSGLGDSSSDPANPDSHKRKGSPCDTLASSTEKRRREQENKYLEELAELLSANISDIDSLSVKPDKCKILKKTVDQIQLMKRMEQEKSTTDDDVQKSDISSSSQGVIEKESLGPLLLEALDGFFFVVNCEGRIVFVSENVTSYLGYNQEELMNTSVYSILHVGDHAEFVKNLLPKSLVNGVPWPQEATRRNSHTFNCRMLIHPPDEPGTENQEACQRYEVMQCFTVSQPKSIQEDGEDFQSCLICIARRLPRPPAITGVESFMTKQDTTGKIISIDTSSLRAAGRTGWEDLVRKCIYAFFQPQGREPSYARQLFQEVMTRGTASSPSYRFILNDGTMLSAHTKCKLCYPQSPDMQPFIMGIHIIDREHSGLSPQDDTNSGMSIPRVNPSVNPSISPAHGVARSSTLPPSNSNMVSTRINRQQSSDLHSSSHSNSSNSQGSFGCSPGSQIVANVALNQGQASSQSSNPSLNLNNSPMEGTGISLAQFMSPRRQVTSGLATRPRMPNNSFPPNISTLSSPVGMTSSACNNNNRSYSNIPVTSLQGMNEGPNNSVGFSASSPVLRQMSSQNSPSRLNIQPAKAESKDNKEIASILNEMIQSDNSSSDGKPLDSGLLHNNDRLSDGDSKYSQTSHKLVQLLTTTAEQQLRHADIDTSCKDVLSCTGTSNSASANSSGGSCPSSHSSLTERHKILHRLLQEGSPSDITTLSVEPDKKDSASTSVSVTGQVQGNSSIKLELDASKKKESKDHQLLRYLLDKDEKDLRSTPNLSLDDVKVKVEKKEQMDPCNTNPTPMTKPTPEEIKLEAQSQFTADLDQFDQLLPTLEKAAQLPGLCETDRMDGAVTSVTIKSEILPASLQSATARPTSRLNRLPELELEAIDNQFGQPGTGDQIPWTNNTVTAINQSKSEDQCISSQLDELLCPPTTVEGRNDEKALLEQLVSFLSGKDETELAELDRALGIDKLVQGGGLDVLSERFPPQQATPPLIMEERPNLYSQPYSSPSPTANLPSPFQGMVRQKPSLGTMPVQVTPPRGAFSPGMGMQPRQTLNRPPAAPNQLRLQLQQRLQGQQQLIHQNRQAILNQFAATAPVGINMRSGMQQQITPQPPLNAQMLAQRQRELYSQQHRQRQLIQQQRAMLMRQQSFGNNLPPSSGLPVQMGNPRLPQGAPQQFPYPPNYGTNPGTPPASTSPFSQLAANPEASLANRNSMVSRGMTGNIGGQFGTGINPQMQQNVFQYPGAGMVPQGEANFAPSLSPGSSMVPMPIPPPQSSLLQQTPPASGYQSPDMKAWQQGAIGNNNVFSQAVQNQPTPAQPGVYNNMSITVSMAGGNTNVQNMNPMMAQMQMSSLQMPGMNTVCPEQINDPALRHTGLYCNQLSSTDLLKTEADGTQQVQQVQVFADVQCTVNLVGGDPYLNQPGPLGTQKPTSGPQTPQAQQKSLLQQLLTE

[9] = biological target: Peroxisome proliferator-activated receptor gamma/Nuclear receptor coactivator 3 (Homo sapiens, UniProt P37231); assay: as §1, with “3 (SRC-3)” for “1 (SRC-1)”, “assays: 1301 (Confirmation screen.), 1048 (Primary screen.)]” for “assays (depositor defined):AID1300, AID1808, AID504735, AID631]”; type: functional
[10] = biological target: Luciferin 4-monooxygenase (Photinus pyralis, UniProt P08659); assay: inhibition of purified Photinus pyralis luciferase – biochemical, luminescence, dose response (AID 1891)
Sequence of Luciferin 4-monooxygenase (P08659 whole entry): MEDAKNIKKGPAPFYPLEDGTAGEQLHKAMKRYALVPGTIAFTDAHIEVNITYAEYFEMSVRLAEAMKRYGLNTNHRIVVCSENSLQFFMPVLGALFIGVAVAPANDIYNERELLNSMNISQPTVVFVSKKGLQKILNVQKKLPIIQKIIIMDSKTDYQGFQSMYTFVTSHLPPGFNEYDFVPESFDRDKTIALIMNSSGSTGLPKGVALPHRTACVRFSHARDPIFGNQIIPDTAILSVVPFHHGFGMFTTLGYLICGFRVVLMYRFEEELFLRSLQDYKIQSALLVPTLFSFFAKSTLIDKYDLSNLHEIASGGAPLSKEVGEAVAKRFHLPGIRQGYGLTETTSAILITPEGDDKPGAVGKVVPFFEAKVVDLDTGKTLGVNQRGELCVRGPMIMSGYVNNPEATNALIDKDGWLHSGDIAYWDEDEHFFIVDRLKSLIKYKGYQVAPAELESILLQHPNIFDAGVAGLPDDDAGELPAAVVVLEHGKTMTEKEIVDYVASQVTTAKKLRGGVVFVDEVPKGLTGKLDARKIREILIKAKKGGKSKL

[11] = Luminescence Cell-Based Dose Confirmation HTS to Identify Inhibitors of Platelet Dense Granule Release. [Related pubchem assays: 1663 (Primary HTS), 1678 (Summary of Project)]; type: functional
[12] = biological target: Peroxisome proliferator-activated receptor gamma/Nuclear receptor coactivator 2 (Homo sapiens, UniProt P37231); assay: TR-FRET dose response biochemical High Throughput Screening assay for agonists of the steroid receptor coactivator 2 (SRC-2) recruitment by the peroxisome proliferator-activated receptor gamma (PPAR gamma): non-selective agonists. [Related pubchem assays: 1297, 1032 ]; type: functional
Beta-galactosidase = Beta-galactosidase (Escherichia coli, UniProt Q8VNN2); assay: detection-enzyme interference by beta-gal modulators – biochemical, E. coli enzyme, set 3, artefact control for CCR6 antagonist project, dose response (AID 504712); type: functional
Sequence of Beta-galactosidase (Q8VNN2 whole entry, the tested form may be a part): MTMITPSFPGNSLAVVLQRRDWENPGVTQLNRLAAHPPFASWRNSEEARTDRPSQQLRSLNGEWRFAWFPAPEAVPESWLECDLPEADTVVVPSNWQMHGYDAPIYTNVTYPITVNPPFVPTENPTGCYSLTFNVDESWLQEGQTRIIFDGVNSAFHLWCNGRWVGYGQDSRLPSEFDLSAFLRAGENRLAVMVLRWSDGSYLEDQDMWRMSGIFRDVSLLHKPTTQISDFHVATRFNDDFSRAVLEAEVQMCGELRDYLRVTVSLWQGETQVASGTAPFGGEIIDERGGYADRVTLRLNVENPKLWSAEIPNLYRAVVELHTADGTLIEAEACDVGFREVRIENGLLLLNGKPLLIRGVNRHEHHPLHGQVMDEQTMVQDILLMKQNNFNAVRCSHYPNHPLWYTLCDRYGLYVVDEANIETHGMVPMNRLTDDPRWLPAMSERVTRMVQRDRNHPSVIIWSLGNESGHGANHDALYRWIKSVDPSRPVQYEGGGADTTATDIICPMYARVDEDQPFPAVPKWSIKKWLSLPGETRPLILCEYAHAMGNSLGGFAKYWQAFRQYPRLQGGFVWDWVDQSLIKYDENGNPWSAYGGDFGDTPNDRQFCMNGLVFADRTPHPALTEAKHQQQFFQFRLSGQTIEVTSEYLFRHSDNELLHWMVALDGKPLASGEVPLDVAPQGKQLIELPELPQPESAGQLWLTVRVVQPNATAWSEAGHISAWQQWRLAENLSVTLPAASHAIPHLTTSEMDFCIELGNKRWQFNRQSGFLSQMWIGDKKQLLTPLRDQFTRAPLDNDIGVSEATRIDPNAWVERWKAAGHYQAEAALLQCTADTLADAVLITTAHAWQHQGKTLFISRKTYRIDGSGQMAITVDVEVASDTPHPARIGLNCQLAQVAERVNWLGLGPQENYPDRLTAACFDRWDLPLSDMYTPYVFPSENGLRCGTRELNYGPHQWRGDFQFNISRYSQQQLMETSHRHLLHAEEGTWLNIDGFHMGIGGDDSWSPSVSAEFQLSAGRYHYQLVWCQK

[13] = Fluorescence-based cell-based high throughput dose response assay for inhibitors of the interaction of nucleotide-binding oligomerization domain containing 2 (NOD2) and the receptor-interacting serine-threonine kinase 2 (RIPK2).; type: functional; settings: Homo sapiens
Beta Lactamase = Beta Lactamase (Pseudomonas aeruginosa, UniProt Q932Y6); assay: BLA reporter interference, concentration series – BLA reporter cells, FRET fluorescence, artefact control for NOD2-RIPK2 interaction inhibitor project, dose response (AID 651552); type: functional, cell-based
Sequence of Beta Lactamase (Q932Y6 whole entry): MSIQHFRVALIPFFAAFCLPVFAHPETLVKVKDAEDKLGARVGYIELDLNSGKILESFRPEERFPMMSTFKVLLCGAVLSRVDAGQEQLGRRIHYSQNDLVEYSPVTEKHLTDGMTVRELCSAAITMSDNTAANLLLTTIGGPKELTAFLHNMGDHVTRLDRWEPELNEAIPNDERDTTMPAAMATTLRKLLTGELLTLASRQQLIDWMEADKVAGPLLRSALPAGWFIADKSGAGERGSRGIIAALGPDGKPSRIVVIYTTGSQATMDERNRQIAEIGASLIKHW

[14] = Luminescence Cell-Based Dose Retest to Confirm Inhibitors of Cancer Stem Cells. [Related pubchem assays (depositor defined):AID2717, AID2721]; type: functional; settings: Homo sapiens
Vero = assay: cells; type: functional; settings: Chlorocebus sabaeus
[15] = biological target: Hepatocyte nuclear factor 4-alpha (Homo sapiens, UniProt P41235); type: functional, cell-based;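 further: biochemical luminescence-based dose-response counterscreen measuring inhibition of HNF4 dimerization, run alongside a screen for blockers of ABHD5–perilipin-5 interaction; split luciferase complementation of HNF4 fusion proteins in cell lysate measuring dimerization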
Sequence of Hepatocyte nuclear factor 4-alpha (P41235 whole entry, the tested form may be a part): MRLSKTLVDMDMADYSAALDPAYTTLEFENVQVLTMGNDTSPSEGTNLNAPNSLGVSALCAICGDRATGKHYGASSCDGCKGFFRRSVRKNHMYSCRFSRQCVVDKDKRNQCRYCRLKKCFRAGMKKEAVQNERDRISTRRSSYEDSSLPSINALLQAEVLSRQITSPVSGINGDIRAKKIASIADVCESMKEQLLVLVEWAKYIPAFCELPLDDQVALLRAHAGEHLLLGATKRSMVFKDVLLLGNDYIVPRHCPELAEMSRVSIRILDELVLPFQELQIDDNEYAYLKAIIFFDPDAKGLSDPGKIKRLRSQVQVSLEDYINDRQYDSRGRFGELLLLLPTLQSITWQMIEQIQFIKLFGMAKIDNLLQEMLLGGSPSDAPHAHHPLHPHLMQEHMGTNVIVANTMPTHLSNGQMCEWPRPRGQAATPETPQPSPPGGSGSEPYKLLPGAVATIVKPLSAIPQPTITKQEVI

[16] = biological target: T7, Sentrin-specific protease 8 (Homo sapiens, UniProt Q96LD8); type: functional
T7 sequence (Q96LD8 whole entry): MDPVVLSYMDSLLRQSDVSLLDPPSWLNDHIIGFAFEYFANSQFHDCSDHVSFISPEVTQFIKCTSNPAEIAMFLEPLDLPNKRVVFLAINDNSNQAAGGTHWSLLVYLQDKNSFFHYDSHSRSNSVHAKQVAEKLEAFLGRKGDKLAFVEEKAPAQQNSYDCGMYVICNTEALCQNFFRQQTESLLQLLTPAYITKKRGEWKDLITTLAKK

[17] = biological target: T7, Sentrin-specific protease 8; type: functional; remark: listed apart in the source

## O=C1/C(=C/c2ccc([N+](=O)[O-])cc2)Oc2cc(O)ccc21
[1]
  AC50: 53.7 µM (active)
[2]
  EC50: 175 µM (active)
[3]
  IC50: 38.4 µM (inactive)
[4]
  IC50: 10.1 µM (active)

## OC1=C2Sc3ccc(Cl)cc3N=C2CCC1
[5]
  EC50: 18.4 µM (active)
[6]
  EC50: 8.9 µM (inconclusive)
[3]
  IC50: 13.7 µM (active)
[4]
  IC50: 17.1 µM (active)
[7]
  IC50: 42 µM (active)

## Cc1ccccc1N1C(=O)CC(Sc2nnc(-c3ccccc3)o2)C1=O (centres undefined)
[8]
  EC50: > 26.5 µM (inactive)
[9]
  EC50: > 79.4 µM (not active)
[10]
  EC50: > 112 µM (not active)
[11]
  EC50: > 112 µM (not active)
[12]
  EC50: 26.2 µM (not active)
Beta-galactosidase
  IC50: > 66.6 µM (inactive)
[2]
  EC50: 57.4 µM (active)
[13]
  IC50: 4.12 µM (active)
Beta Lactamase
  IC50: 12.7 µM (inactive)

## CCOC(=O)/C(=C\c1ccc(Cl)cc1)c1nc(O)c2c(C)c(C)sc2n1
[14]
  AC50: 0.981 µM (active)
[2]
  EC50: > 260 µM (inconclusive)
Vero
  CC50: 16.5 µM (active)
[15]
  IC50: 1.56 µM (active)

## C[C@@H](OC(=O)c1nc[nH]c1C(=O)N1CCc2ccccc2C1)c1ccccc1
[16]
  IC50: 80.9 µM (inactive)
[17]
  IC50: 6.73 µM (active)
